# In patent US20090176847A1, “Dicyclooctane Derivatives, Preparation Processes and Medical Uses Thereof” (priority 2006, published 2009):
# pIC50: −log10 of the molar value. Where a name gives a salt, the structure may show the parent alone.
# Columns and labels:
# [1] = target: T1, Dipeptidylpeptidase IV, Human Placenta (Homo sapiens, UniProt P27487); test: Active inhibition DPP IV assay (DPP IV-Glo Protease Assay Kit, chemical luminescent); format: biochemical; conditions: chemiluminescence, two parallel treatments
# T1 construct: Dipeptidylpeptidase IV, Human Placenta (cat. 317630) of Calbiochem company; purchased Calbiochem 317630; host or cells: human placenta (tissue-derived natural enzyme)
# T1 sequence (P27487 whole entry): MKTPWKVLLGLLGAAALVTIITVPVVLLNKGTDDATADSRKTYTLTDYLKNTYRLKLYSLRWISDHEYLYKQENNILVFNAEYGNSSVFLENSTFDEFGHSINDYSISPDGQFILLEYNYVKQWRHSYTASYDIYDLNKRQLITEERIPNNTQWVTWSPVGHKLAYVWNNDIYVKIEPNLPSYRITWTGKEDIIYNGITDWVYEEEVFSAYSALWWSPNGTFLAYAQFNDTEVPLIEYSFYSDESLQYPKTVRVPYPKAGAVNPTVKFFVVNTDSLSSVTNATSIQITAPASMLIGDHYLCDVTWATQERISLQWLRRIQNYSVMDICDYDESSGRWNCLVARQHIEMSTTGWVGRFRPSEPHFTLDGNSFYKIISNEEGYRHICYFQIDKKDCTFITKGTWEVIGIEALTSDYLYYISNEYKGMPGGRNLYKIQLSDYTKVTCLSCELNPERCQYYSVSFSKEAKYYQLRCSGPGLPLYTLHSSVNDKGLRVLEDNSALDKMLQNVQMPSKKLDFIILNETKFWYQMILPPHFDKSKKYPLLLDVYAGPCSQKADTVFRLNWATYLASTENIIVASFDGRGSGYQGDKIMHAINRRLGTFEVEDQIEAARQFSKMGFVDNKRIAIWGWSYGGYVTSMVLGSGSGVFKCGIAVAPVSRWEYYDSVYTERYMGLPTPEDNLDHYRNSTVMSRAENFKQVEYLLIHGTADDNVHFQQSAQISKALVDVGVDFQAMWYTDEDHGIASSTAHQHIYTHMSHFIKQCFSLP
# Description: IC50 is determined by a NovoStar ELIASA (BMG Co. German).
# According to the manual of the kit, this invention inspected the amount of the each reagent in the experimental, corresponding amount of DPPIV enzyme and chemiluminescence detection methods.
# normal ICR mice = test: Preliminary evaluation of hypoglycemic activity: effects on glucose tolerance in normal ICR mice; format: in vivo; conditions: oral 0.3, 1, 3, 10 mg/kg, serum glucose
# Description: Effects on glucose tolerance in normal ICR mice of examples 15 and 16 were determined. Hypoglycemic activities in vivo were preliminary evaluated. Preparation procedure: drugs were accurately weighed and dissolved in double-distilled water, misce bene to obtain 0.5 mg/ml suspension, then diluted into colorless and clear solutions which concentration were 0.15, 0.05 and 0.015 mg/ml. Administrated Dose: the oral doses were 0.3, 1, 3, 10 mg/kg and the volume was 20 ml/kg. […] Glucose kits was used in the determination of serum glucose levels. Take 250 μl enzyme fluid, then add 5 μl serum. Establish blank tube (by added 5 μl double-distilled) and the standard tube (by added 5 μl standard glucose solution) simultaneously, misce bene. 37° C. water bath for 20 min. To adjust to zero value with blank tube, OD(505 nm) levels were determined. Serum glucose level BG(mmol/l)=ODsample tube/ODstandard tube×5.55.
pIC50 [1],SMILES,"inhibitor activity of DPPIV in vivo (hypoglycemic activity, glucose tolerance) (normal ICR mice)",in vivo activity compared with positive control LAF-237 (normal ICR mice)
6.92,"N#CC1CCCN1C(=O)CNC1CC2CC(OC(=O)Nc3ccccc3)CC2C1 (stereo not shown) [Example 6, 5-[2-(2-cyano-pyrrolidin-1-yl)-2-oxo-ethylamino]-octahydro-pentalen-2-yl phenyl-carbamate hydrochloride]",–,–
7.74,"CCCCC1(O)CC2CC(NCC(=O)N3CCCC3C#N)CC2C1 (stereo not shown) [Example 10, 1-[2-(5-butyl-5-hydroxy-octahydro-pentalen-2-ylamino)-acetyl]-pyrrolidine-2-carbonitrilehydrochloride]",–,–
6.69,"CC(C)NC(=O)OC1CC2CC(NCC(=O)N3CCCC3C#N)CC2C1 (stereo not shown) [Example 7, 5-[2-(2-cyano-pyrrolidin-1-yl)-2-oxo-ethylamino]-octahydro-pentalen-2-yl isopropyl-carbamate hydrochloride]",–,–
6.49,"CC(C)(C)NC(=O)OC1CC2CC(NCC(=O)N3CCCC3C#N)CC2C1 (stereo not shown) [Example 8, 5-[2-(2-cyano-pyrrolidin-1-yl)-2-oxo-ethylamino]-octahydro-pentalen-2-yl tert-butyl-carbamate hydrochloride]",–,–
–,"Cl.N#CC1CCCN1C(=O)CNC1CC2CC(=O)CC2C1 (stereo not shown) [Example 15, 1-[2-(5-oxo-octahydro-pentalen-2-ylamino)-acetyl]-pyrrolidine-2-carbonitrile hydrochloride]",good inhibitor activities of DPPIV in vivo,–
–,"Cl.N#CC1CCCN1C(=O)CNC1CC2CC(O)CC2C1 (stereo not shown) [Example 16, 1-(2-(5-hydroxyl-octahydro-pentalen-2-ylamino)-acetyl)pyrrolidine-2-carbonitrile hydrochloride]",good inhibitor activities of DPPIV in vivo,slightly better than LAF-237
